Experimental data taken from patent US8901133B2, “Heterocyclic compounds and uses thereof” (Infinity Pharmaceuticals, Inc., priority 2010, dated 2014).

Tests used:
[1] = biological target: T1, PI3Kδ (Homo sapiens, UniProt O00329); test: PI3 Kinase HTRF assay, PI3Kδ; type: biochemical; details: 10 μM PIP2, 10 μM ATP; read-out: PI3K δ IC50
T1 construct: purchased Millipore Corporation 14-604-K
Outline: (§1)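 Recombinant human PI3K isoform converts 10 μM PIP2 to PIP3 with 10 μM ATP, 1 h at room temperature after 15 min compound preincubation; 2% DMSO. PIP3 read by HTRF competition with biotin-PIP3/GST-GRP1 PH domain. IC50 from 12-point curve, 20 μM to 0.1 nM, nonlinear regression.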

[2] = biological target: T2, PI3Kγ (Homo sapiens, UniProt P48736); test: PI3 Kinase HTRF assay, PI3Kγ; type: biochemical; details: 10 μM PIP2, 10 μM ATP; read-out: PI3K γ IC50
T2 construct: purchased Millipore Corporation 14-558-K
T2 sequence (P48736 whole entry): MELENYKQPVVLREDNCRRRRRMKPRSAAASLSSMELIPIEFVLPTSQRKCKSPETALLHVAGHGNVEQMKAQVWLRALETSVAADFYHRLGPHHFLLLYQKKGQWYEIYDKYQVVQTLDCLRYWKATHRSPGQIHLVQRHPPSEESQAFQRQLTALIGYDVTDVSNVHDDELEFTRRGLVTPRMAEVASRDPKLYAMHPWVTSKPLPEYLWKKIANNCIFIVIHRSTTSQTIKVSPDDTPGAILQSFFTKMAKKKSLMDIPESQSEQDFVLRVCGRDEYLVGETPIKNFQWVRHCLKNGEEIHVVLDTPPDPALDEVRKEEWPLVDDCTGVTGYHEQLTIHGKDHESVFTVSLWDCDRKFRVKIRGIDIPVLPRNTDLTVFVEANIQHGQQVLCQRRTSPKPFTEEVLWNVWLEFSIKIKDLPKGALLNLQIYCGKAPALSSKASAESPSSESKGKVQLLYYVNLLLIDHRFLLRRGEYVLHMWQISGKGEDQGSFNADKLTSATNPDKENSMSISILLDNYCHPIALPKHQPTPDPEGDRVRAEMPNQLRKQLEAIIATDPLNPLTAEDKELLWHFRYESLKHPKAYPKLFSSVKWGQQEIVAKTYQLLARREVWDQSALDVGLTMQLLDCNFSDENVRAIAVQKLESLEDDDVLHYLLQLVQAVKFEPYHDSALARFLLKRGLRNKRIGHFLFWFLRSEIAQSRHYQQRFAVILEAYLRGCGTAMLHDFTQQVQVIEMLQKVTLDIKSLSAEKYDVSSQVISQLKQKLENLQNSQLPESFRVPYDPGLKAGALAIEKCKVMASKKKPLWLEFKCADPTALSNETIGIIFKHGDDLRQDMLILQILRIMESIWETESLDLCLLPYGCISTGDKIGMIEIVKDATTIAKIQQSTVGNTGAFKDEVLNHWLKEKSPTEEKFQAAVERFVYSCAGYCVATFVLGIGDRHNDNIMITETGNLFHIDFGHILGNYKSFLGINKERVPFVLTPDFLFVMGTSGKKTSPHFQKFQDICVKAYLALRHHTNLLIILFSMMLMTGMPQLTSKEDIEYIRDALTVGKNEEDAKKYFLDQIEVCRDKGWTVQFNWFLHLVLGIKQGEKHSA
Outline: as §1

[3] = biological target: T3, PI3Kα (Homo sapiens, UniProt P42336); test: PI3 Kinase HTRF assay, PI3Kα; type: biochemical; details: 10 μM PIP2, 10 μM ATP; read-out: PI3K α IC50
T3 construct: purchased Millipore Corporation 14-602-K
T3 sequence (P42336 whole entry): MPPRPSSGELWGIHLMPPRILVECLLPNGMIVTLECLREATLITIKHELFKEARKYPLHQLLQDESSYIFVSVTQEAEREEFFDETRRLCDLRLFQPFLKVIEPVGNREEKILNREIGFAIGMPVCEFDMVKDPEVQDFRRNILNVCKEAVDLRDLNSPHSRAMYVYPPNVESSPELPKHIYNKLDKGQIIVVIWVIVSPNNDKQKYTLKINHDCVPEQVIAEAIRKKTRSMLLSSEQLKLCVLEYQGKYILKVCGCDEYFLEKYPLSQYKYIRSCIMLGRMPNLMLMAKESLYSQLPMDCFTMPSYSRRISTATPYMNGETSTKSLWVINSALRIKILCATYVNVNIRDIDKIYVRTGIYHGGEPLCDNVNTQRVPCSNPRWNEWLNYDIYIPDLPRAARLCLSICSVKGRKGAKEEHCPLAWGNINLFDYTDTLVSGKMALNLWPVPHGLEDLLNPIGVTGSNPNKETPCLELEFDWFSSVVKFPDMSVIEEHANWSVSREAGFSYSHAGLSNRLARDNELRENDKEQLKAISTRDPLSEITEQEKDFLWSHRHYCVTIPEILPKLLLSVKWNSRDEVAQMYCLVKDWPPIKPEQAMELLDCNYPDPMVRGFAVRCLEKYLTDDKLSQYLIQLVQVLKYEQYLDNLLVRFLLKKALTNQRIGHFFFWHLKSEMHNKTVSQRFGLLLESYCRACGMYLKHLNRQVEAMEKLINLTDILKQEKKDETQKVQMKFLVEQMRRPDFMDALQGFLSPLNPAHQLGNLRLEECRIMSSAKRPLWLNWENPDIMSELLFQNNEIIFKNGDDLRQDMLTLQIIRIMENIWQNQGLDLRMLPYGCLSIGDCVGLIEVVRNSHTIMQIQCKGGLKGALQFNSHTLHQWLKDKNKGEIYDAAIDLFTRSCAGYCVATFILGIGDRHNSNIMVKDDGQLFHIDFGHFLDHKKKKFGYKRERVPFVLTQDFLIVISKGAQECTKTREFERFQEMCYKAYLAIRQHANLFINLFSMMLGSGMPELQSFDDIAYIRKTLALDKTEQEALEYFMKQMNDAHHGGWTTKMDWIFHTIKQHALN
T3 sequence (P27986 whole entry partner): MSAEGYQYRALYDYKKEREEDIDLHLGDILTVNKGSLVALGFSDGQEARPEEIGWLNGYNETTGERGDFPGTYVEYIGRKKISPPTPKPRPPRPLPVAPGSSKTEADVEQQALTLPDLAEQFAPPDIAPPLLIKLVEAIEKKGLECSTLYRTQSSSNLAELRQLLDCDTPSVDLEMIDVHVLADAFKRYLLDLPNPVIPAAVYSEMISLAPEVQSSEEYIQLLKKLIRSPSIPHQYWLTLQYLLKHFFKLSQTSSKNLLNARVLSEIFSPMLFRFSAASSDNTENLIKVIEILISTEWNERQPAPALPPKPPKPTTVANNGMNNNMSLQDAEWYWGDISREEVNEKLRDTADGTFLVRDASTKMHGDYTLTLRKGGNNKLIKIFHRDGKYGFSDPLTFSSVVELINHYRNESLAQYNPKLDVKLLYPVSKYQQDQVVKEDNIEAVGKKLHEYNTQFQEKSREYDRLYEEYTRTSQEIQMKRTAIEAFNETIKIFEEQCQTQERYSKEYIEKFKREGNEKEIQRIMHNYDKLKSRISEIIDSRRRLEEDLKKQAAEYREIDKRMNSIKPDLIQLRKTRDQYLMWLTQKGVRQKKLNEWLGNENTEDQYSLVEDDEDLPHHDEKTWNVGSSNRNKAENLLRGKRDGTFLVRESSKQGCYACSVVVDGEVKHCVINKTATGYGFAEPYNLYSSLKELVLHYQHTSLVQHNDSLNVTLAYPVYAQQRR
Outline: as §1

[4] = biological target: T4, PI3Kβ (Homo sapiens, UniProt P42338); test: PI3 Kinase HTRF assay, PI3Kβ; type: biochemical; details: 10 μM PIP2, 10 μM ATP; read-out: PI3K β IC50
T4 construct: purchased Millipore Corporation 14-603-K
T4 sequence (P42338 whole entry): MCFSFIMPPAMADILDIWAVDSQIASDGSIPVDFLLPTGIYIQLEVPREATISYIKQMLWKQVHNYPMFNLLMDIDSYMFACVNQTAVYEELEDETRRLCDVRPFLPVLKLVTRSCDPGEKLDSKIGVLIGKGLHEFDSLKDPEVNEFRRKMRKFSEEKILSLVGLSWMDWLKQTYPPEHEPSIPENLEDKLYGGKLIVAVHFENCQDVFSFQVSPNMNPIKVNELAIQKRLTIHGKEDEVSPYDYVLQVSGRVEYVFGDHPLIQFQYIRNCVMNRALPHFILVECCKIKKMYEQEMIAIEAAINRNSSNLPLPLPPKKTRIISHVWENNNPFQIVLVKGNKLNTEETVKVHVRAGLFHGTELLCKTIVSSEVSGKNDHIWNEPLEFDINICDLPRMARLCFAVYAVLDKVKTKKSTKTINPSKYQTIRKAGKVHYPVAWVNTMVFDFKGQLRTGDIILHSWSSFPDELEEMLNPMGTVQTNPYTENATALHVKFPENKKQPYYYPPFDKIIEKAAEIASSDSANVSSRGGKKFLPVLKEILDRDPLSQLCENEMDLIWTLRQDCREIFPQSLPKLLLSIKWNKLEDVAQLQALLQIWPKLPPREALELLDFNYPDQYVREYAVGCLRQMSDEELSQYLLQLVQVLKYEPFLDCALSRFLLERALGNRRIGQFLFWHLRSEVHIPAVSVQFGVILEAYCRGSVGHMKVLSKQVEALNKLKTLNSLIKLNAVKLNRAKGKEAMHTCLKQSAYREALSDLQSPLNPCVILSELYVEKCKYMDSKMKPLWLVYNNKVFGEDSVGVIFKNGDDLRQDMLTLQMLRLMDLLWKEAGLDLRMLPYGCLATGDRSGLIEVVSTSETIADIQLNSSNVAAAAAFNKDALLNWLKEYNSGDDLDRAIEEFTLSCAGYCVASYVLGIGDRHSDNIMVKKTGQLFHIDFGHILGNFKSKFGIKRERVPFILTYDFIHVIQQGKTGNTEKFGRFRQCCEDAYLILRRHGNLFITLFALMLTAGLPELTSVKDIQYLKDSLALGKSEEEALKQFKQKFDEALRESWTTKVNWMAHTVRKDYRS
T4 sequence (P27986 whole entry partner): as the sequence (P27986 whole entry partner) above
Outline: as §1

[5] = tested on: Balb/c splenic B cells; test: B cell activation and proliferation assay (Alamar Blue); type: cell-based; details: Mus musculus, read-out: B cell prolif. IC50
Protocol: The ability of one or more subject compounds to inhibit B cell activation and proliferation is determined according to standard procedures known in the art. For example, an in vitro cellular proliferation assay is established that measures the metabolic activity of live cells. The assay is performed in a 96 well microtiter plate using Alamar Blue reduction. Balb/c splenic B cells are purified over a Ficoll-Paque™ PLUS gradient followed by magnetic cell separation using a MACS B cell Isolation Kit (Miletenyi). Cells are plated in 90 ul at 50,000 cells/well in B Cell Media (RPMI+10% FBS+Penn/Strep+50 uM bME+5 mM HEPES). A compound disclosed herein is diluted in B Cell Media and added in a 10 μl volume. Plates are incubated for 30 min at 37 C and 5% CO2 (0.2% DMSO final concentration). A 50 μl B cell stimulation cocktail is then added containing either 10 ug/ml LPS or 5 ug/ml F(ab′)2 Donkey anti-mouse IgM plus 2 ng/ml recombinant mouse IL4 in B Cell Media. Plates are incubated for 72 hours at 37° C. and 5% CO2. A volume of 15 μl of Alamar Blue reagent is added to each well and plates are incubated for 5 hours at 37 C and 5% CO2. Alamar Blue fluoresce is read at 560Ex/590Em, and IC50 or EC50 values are calculated using GraphPad Prism 5.

T1 sequence (O00329 whole entry): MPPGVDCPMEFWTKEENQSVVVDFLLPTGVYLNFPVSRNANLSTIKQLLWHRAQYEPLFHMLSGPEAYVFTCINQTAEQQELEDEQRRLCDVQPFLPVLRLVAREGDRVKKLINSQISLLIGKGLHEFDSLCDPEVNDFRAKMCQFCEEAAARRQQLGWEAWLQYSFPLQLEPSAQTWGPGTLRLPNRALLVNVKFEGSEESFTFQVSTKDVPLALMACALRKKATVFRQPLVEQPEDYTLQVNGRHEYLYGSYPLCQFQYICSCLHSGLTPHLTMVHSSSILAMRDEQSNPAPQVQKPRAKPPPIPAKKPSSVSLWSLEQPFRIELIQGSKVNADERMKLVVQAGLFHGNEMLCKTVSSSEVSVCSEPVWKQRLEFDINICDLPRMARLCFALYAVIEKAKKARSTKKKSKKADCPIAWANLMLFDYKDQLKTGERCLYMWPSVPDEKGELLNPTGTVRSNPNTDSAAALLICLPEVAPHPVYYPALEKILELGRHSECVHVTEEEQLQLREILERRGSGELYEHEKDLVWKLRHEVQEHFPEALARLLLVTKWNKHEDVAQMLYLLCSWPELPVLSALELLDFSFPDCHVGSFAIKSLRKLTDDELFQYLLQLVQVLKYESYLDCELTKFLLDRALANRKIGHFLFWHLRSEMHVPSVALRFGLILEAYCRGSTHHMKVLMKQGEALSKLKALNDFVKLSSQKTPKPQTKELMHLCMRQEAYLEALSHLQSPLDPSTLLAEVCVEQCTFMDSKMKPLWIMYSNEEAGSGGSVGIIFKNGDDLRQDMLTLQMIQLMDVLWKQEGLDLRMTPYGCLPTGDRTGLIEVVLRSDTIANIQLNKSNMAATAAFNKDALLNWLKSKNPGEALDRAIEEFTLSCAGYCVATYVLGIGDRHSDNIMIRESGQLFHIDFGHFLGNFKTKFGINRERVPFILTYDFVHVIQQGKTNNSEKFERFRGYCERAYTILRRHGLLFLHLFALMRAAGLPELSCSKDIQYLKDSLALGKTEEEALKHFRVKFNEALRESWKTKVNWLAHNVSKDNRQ
T1 sequence (P27986 whole entry partner): as the sequence (P27986 whole entry partner) above

| IC50 [1] | IC50 [2] | IC50 [3] | IC50 [4] | SMILES | IC50 [5] |
| --- | --- | --- | --- | --- | --- |
| < 0.1 µM | < 10 µM | < 10 µM | < 10 µM | C[C@H](Nc1ncnc2[nH]cnc12)c1cc2cccc(Cl)c2c([S+]([O-])CCN2CCCC2)n1 (stereo partly shown) [Compound 136] | < 0.1 µM |
| < 0.1 µM | < 10 µM | > 10 µM | > 10 µM | C[C@H](Nc1ncnc2scnc12)c1cc2cccc(Cl)c2c(C(=O)NC2CCOCC2)n1 [Compound 144] | < 0.1 µM |
| < 0.1 µM | > 10 µM | > 10 µM | < 10 µM | Cc1cccc2cc([C@H](C)Nc3ncnc4[nH]cnc34)nc(OCCN3CCCC3)c12 [Compound 145] | < 0.1 µM |
| < 0.1 µM | < 10 µM | > 10 µM | < 10 µM | Cc1cccc2cc([C@H](C)Nc3ncnc4[nH]cnc34)nc(CCN3CCOCC3)c12 [Compound 146] | < 0.1 µM |
| < 0.1 µM | < 10 µM | > 10 µM | < 10 µM | C[C@H](Nc1ncnc2[nH]cnc12)c1cc2cccc(-c3cnn(C)c3)c2c(OCCN2CCCC2)n1 [Compound 151] | < 0.1 µM |
| < 0.1 µM | > 10 µM | > 10 µM | < 10 µM | CC(C)N1CCC(Oc2nc([C@H](C)Nc3ncnc4[nH]cnc34)cc3cccc(-c4cnn(C)c4)c23)CC1 [Compound 158] | < 1 µM |
| < 0.1 µM | < 1 µM | < 1 µM | < 10 µM | Cc1cccc2cc([C@H](C)Nc3ncnc4cccnc34)nc(OCCN3CCCC3)c12 [Compound 162] | < 0.1 µM |
| < 0.1 µM | < 10 µM | < 10 µM | > 10 µM | Cc1cccc2cc([C@H](C)Nc3ncnc4cccnc34)nc(OC3CCN(C(C)C)CC3)c12 [Compound 163] | < 0.1 µM |
| < 0.1 µM | < 10 µM | < 10 µM | < 10 µM | Cc1cccc2cc([C@H](C)Nc3ncnc4cccnc34)nc(N3CCN(C)CC3)c12 [Compound 164] | < 0.1 µM |
| < 0.1 µM | < 10 µM | < 10 µM | > 10 µM | Cc1cccc2cc([C@H](C)Nc3ncnc4cccnc34)nc(CCN3CCOCC3)c12 [Compound 165] | < 0.1 µM |
| < 0.1 µM | < 1 µM | < 10 µM | < 10 µM | Cc1cccc2cc([C@H](C)Nc3ncnc4cccnc34)nc(C(=O)N3CCOCC3)c12 [Compound 166] | < 0.1 µM |
| < 0.1 µM | < 10 µM | > 10 µM | > 10 µM | C[C@H](Nc1ncnc2[nH]cnc12)c1cc2cccc(-c3cnn(C)c3)c2c(C(=O)N2CCOCC2)n1 [Compound 185] | < 0.1 µM |
| < 0.1 µM | < 1 µM | > 10 µM | > 10 µM | C[C@H](Nc1ncnc2[nH]cnc12)c1cc2cccc(-c3cccnc3)c2c(Cl)n1 [Compound 192] | < 1 µM |
| < 0.1 µM | < 0.1 µM | < 10 µM | < 10 µM | C[C@H](Nc1ncnc2[nH]cc(C(N)=O)c12)c1cc2cccc(Cl)c2c(C(=O)N2CCOCC2)n1 [Compound 204] | < 0.1 µM |
| < 0.1 µM | < 10 µM | < 10 µM | < 10 µM | CCN1CCC(NC(=O)c2nc([C@H](C)Nc3ncnc4scnc34)cc3cccc(Cl)c23)CC1 [Compound 212] | < 0.1 µM |
| < 0.1 µM | < 10 µM | < 10 µM | < 10 µM | C[C@H](Nc1ncnc2scnc12)c1cc2cccc(Cl)c2c(C(=O)N2CCOC[C@@H]2C)n1 [Compound 232] | < 0.1 µM |
| < 0.1 µM | < 0.1 µM | > 10 µM | < 10 µM | C[C@H](Nc1nc(N)nc2cccnc12)c1cc2cccc(Cl)c2c(C(=O)N2CCOCC2)n1 [Compound 238] | < 0.1 µM |

Continued, compound first:

| SMILES | IC50 [1] | IC50 [2] | IC50 [3] | IC50 [4] | IC50 [5] |
| --- | --- | --- | --- | --- | --- |
| Cc1cccc2cc([C@H](C)Nc3ncnc4[nH]cnc34)nc(C(=O)N3C4CCC3COC4)c12 [Compound 149] | < 0.1 µM | < 10 µM | > 10 µM | > 10 µM | < 0.1 µM |
| CC(C)N1CCC(Oc2nc([C@H](C)Nc3ncnc4cccnc34)cc3cccc(-c4cnn(C)c4)c23)CC1 [Compound 160] | < 0.1 µM | < 10 µM | < 10 µM | > 10 µM | < 0.1 µM |
| Cc1cccc2cc([C@H](C)Nc3ncnc4cccnc34)nc(C(=O)N3C4CCC3COC4)c12 [Compound 167] | < 0.1 µM | < 1 µM | < 10 µM | < 10 µM | < 0.1 µM |
| C[C@H](Nc1ncnc2scnc12)c1cc2cccc(Cl)c2c(OC2CCN(S(C)(=O)=O)CC2)n1 [Compound 172] | < 0.1 µM | < 10 µM | > 10 µM | < 10 µM | < 1 µM |
| C[C@H](Nc1ncnc2cccnc12)c1cc2cccc(Cl)c2c(OC2CCN(S(C)(=O)=O)CC2)n1 [Compound 173] | < 0.1 µM | < 10 µM | > 10 µM | < 10 µM | < 1 µM |
| C[C@H](Nc1ccnn2ccnc12)c1cc2cccc(Cl)c2c(OC2CCN(S(C)(=O)=O)CC2)n1 [Compound 176] | < 0.1 µM | < 10 µM | > 10 µM | < 10 µM | < 1 µM |
| C[C@H](Nc1ccnc2ccnn12)c1cc2cccc(Cl)c2c(C(=O)NC2CCOCC2)n1 [Compound 177] | < 0.1 µM | > 10 µM | > 10 µM | > 10 µM | < 0.1 µM |
| C[C@H](Nc1ccnn2ccnc12)c1cc2cccc(Cl)c2c(C(=O)NC2CCOCC2)n1 [Compound 180] | < 0.1 µM | > 10 µM | > 10 µM | > 10 µM | < 0.1 µM |
| C[C@H](Nc1ccnn2ccnc12)c1cc2cccc(Cl)c2c(OCCN2CCCC2)n1 [Compound 182] | < 0.1 µM | > 10 µM | > 10 µM | > 10 µM | < 1 µM |
| C[C@H](Nc1ccnn2ccnc12)c1cc2cccc(Cl)c2c(C(=O)N2CCOCC2)n1 [Compound 188] | < 0.1 µM | < 1 µM | < 10 µM | < 1 µM | < 0.1 µM |
| C[C@H](Nc1ccnn2ccnc12)c1cc2cccc(Cl)c2c(C(=O)N2C3CCC2COC3)n1 [Compound 189] | < 0.1 µM | < 10 µM | > 10 µM | < 10 µM | < 0.1 µM |
| C[C@H](Nc1ncnc2[nH]cc(C(N)=O)c12)c1cc2cccc(Cl)c2c(C(=O)N2C3CCC2COC3)n1 [Compound 207] | < 0.1 µM | < 0.1 µM | < 10 µM | < 10 µM | < 0.1 µM |
| C[C@H](Nc1ncnc2[nH]cc(F)c12)c1cc2cccc(Cl)c2c(C(=O)N2C3CCC2COC3)n1 [Compound 208] | < 0.1 µM | < 1 µM | < 10 µM | < 10 µM | < 0.1 µM |
| C[C@H](Nc1ncnc2scnc12)c1cc2cccc(Cl)c2c(C(=O)NC2CCCC2)n1 [Compound 213] | < 0.1 µM | < 10 µM | < 10 µM | > 10 µM | < 0.1 µM |
| C[C@H](Nc1ncnc2scnc12)c1cc2cccc(Cl)c2c(C(=O)NC2CCC(O)CC2)n1 (stereo partly shown) [Compound 214] | < 0.1 µM | < 10 µM | < 10 µM | > 10 µM | < 0.1 µM |
| C[C@H](Nc1ncnc2scnc12)c1cc2cccc(Cl)c2c(C(=O)N2CCS(=O)(=O)CC2)n1 [Compound 220] | < 0.1 µM | < 1 µM | > 10 µM | < 10 µM | < 0.1 µM |
| C[C@H](Nc1ncnc2scnc12)c1cc2cccc(Cl)c2c(C(=O)N2CCC(F)(F)CC2)n1 [Compound 228] | < 0.1 µM | < 10 µM | < 10 µM | < 10 µM | < 0.1 µM |
| C[C@H](Nc1ncnc2scnc12)c1cc2cccc(Cl)c2c(C(=O)N2CCC(O)CC2)n1 [Compound 234] | < 0.1 µM | < 10 µM | < 10 µM | < 10 µM | < 0.1 µM |
